Experimental data taken from the kinase profiling compilation of Christmann-Franck et al. (2016).

Assays:
Assay in all cases: TR FRET
Conditions in all cases: compound 0.01 µM
ANKK1 (human) = ANKK1 (human) (UniProt Q8NFD2)
BLK (human) = BLK (human) (UniProt P51451)
BMX (human) = BMX (human) (UniProt P51813)
BRAF (human) = BRAF (human) (UniProt P15056)
[1] = system: BRAF (human), P15056 [V600E]
CHUK (human) = CHUK (human) (UniProt O15111)
CPK1 (P.falciparum) = system: CPK1 (P.falciparum)
CSF1R (human) = CSF1R (human) (UniProt P07333)
CSK (human) = CSK (human) (UniProt P41240)
CSK (human), sequence (P41240 whole entry, looked up): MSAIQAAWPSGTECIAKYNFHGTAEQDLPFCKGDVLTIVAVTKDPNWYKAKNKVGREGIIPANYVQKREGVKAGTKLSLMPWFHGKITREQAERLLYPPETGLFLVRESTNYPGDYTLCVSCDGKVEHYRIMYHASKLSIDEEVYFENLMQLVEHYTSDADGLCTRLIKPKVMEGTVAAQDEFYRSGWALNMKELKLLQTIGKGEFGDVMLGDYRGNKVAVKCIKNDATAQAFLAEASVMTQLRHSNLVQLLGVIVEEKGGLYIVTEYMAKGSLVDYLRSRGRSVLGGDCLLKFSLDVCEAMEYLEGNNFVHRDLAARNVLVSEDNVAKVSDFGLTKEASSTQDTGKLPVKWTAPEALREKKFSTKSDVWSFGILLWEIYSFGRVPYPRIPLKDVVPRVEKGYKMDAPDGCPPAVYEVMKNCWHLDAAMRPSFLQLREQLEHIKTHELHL

DDR1 (human) = DDR1 (human) (UniProt Q08345)
DDR2 (human) = DDR2 (human) (UniProt Q16832)
[2] = system: EIF2AK4 KD2 (human), Q9P2K8 [S808G]
EPHA3 (human) = EPHA3 (human) (UniProt P29320)
EPHA4 (human) = EPHA4 (human) (UniProt P54764)
EPHA8 (human) = EPHA8 (human) (UniProt P29322)
FGFR1 (human) = FGFR1 (human) (UniProt P11362)
FGR (human) = FGR (human) (UniProt P09769)
FLT3 (human) = FLT3 (human) (UniProt P36888)
[3] = system: FLT3 (human), P36888 [D835H]
[4] = system: FLT3 (human), P36888 [D835Y]
[5] = system: FLT3 (human), P36888 [K663Q]
[6] = system: FLT3 (human), P36888 [N841I]
[7] = system: FLT3 (human), P36888 [R834Q]
HCK (human) = HCK (human) (UniProt P08631)
IKBKB (human) = IKBKB (human) (UniProt O14920)
[8] = target: JAK3 JH1 catalytic (human) (UniProt P52333)
KIT (human) = KIT (human) (UniProt P10721)
KIT (human), sequence (P10721 whole entry, looked up): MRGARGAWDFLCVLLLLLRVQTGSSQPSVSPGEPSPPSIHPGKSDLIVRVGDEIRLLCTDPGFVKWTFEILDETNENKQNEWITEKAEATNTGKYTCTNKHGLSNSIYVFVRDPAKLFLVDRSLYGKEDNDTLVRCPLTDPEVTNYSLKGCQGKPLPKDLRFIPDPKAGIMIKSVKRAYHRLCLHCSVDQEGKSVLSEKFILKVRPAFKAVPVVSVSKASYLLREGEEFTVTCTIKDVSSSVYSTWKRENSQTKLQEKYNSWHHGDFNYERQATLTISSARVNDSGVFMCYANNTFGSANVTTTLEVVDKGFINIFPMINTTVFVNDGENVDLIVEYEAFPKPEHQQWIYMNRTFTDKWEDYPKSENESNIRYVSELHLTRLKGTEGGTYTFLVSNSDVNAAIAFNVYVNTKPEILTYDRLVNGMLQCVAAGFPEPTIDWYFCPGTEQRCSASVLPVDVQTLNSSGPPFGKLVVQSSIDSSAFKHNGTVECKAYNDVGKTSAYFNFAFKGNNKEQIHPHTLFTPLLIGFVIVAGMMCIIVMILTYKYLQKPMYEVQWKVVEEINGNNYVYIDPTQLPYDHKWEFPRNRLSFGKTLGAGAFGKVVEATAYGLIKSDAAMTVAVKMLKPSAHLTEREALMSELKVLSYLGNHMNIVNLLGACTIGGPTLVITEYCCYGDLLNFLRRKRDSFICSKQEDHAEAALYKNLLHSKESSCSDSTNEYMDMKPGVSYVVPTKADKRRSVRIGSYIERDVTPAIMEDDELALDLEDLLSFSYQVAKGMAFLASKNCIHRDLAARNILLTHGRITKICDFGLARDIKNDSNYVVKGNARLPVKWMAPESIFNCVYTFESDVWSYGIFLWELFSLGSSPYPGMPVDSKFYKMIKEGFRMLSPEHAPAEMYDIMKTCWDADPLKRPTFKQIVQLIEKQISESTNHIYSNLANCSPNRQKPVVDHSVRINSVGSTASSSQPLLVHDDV

[9] = system: KIT (human), P10721 [L576P]
[10] = system: KIT (human), P10721 [V559D/T670I]
KIT (human), P10721 [V559D/T670I], sequence (P10721 whole entry V559D/T670I, looked up): as the sequence (P10721 whole entry, looked up) above, with V559D, T670I counted along it

[11] = system: KIT (human), P10721 [V559D]
LCK (human) = LCK (human) (UniProt P06239)
LYN (human) = LYN (human) (UniProt P07948)
MAP2K5 (human) = MAP2K5 (human) (UniProt Q13163)
MAP2K5 (human), sequence (Q13163 whole entry, looked up): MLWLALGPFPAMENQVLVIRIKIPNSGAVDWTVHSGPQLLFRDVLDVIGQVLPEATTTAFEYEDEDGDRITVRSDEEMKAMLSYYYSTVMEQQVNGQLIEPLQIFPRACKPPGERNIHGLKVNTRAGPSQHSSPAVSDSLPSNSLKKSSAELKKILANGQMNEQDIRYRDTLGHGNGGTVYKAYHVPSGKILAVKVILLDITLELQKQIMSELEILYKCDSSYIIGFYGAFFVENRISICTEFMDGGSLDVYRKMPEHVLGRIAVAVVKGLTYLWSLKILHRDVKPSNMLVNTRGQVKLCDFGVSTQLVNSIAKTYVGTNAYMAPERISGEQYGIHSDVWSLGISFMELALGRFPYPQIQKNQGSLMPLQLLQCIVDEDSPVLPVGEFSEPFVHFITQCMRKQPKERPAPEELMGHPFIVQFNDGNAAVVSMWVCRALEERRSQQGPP

MAP3K2 (human) = MAP3K2 (human) (UniProt Q9Y2U5)
MAP3K3 (human) = MAP3K3 (human) (UniProt Q99759)
MAP3K7 (human) = MAP3K7 (human) (UniProt O43318)
MAP4K1 (human) = MAP4K1 (human) (UniProt Q92918)
MAP4K2 (human) = MAP4K2 (human) (UniProt Q12851)
MAPK14 (human) = MAPK14 (human) (UniProt Q16539)
MLTK (human) = MLTK (human) (UniProt Q9NYL2)
MUSK (human) = MUSK (human) (UniProt O15146)
NTRK1 (human) = NTRK1 (human) (UniProt P04629)
NTRK2 (human) = NTRK2 (human) (UniProt Q16620)
NTRK3 (human) = NTRK3 (human) (UniProt Q16288)
PDGFRA (human) = PDGFRA (human) (UniProt P16234)
PDGFRB (human) = PDGFRB (human) (UniProt P09619)
RET (human) = RET (human) (UniProt P07949)
[12] = system: RET (human), P07949 [M918T]
[13] = system: RET (human), P07949 [V804M]
SGK3 (human) = SGK3 (human) (UniProt Q96BR1)
SRC (human) = SRC (human) (UniProt P12931)
SRC (human), sequence (P12931 whole entry, looked up): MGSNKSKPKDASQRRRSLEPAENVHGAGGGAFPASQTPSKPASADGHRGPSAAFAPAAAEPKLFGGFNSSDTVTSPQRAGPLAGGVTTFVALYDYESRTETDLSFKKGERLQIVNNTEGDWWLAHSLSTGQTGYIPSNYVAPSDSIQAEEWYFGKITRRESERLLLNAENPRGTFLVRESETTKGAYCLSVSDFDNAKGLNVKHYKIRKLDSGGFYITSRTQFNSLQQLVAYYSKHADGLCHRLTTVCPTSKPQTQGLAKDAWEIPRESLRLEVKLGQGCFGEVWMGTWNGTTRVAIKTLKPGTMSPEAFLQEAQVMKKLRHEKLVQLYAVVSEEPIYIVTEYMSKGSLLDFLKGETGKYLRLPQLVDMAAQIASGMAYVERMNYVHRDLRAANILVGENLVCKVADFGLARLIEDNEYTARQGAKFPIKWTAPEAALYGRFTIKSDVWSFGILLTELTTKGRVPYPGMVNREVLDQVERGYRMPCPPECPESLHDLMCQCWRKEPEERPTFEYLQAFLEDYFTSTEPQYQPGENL

STK10 (human) = STK10 (human) (UniProt O94804)
TAOK3 (human) = TAOK3 (human) (UniProt Q9H2K8)
TAOK3 (human), sequence (Q9H2K8 whole entry, looked up): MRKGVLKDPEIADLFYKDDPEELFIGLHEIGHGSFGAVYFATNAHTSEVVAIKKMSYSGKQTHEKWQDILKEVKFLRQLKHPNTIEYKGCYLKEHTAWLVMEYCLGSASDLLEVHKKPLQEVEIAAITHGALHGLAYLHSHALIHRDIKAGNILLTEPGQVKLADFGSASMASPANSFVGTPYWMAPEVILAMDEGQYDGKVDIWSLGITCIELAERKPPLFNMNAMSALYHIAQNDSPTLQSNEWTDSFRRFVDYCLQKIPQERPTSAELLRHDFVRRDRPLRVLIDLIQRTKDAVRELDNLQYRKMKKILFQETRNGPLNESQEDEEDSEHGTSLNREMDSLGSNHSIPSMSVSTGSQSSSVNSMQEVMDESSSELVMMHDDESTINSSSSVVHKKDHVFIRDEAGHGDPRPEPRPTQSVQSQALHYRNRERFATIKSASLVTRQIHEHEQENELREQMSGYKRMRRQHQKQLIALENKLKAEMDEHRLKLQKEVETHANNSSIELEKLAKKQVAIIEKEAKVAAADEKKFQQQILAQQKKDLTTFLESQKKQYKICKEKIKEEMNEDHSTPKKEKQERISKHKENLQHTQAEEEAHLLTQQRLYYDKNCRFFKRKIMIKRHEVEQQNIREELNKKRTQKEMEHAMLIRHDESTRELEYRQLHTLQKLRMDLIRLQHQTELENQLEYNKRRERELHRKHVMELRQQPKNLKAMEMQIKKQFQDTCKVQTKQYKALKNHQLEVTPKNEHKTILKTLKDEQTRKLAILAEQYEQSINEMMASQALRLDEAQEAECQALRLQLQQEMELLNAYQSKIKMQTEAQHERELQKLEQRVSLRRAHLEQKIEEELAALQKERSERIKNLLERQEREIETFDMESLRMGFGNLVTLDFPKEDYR

TEK (human) = TEK (human) (UniProt Q02763)
TIE1 (human) = TIE1 (human) (UniProt P35590)
TIE1 (human), sequence (P35590 whole entry, looked up): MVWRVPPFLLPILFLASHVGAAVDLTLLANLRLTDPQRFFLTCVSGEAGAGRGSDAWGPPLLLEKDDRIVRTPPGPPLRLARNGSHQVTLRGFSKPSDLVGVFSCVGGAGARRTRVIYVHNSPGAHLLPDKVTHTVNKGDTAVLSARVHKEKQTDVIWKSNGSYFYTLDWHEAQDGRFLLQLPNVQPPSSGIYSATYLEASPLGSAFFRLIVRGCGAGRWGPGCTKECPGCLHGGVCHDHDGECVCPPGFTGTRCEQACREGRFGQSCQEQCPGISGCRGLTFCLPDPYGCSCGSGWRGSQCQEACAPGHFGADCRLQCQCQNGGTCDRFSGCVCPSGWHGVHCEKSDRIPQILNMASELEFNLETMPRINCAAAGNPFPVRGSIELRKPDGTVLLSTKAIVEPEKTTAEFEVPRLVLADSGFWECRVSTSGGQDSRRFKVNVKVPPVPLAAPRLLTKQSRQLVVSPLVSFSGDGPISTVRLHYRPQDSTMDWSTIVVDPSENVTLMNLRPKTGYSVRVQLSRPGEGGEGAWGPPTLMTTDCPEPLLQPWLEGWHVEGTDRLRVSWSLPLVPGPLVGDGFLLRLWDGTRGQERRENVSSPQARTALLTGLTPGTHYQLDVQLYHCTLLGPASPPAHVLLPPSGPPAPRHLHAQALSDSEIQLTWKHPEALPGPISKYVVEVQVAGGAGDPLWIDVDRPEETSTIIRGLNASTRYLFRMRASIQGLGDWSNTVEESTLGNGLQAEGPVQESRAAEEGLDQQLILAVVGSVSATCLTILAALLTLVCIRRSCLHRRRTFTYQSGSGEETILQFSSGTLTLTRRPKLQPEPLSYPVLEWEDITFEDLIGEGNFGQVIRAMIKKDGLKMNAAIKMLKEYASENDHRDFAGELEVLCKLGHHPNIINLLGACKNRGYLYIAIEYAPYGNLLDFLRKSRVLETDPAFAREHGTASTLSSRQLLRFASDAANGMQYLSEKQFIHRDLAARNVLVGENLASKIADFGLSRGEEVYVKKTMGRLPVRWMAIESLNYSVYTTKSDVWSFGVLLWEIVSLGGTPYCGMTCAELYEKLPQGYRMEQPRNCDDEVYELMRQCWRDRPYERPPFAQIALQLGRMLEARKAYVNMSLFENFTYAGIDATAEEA

TNIK (human) = TNIK (human) (UniProt Q9UKE5)
TNK1 (human) = TNK1 (human) (UniProt Q13470)
ULK1 (human) = ULK1 (human) (UniProt O75385)
YES1 (human) = YES1 (human) (UniProt P07947)
YES1 (human), sequence (P07947 whole entry, looked up): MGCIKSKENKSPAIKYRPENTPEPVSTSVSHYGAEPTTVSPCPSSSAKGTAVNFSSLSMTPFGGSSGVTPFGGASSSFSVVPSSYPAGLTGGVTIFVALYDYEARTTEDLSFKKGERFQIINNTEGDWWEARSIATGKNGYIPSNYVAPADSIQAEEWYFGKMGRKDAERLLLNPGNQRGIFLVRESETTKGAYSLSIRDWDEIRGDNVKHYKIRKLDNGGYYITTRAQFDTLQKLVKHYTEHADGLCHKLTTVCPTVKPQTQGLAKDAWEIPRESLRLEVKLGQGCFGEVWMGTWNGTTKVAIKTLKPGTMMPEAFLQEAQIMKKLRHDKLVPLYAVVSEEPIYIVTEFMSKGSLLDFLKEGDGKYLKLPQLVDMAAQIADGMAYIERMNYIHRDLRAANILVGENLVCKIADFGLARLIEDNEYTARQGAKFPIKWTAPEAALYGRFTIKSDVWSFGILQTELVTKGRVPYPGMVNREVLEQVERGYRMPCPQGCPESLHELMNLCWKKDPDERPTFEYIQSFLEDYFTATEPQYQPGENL

Cc1ccc(C(=O)Nc2ccc(CN3CCN(C)CC3)c(C(F)(F)F)c2)cc1C#Cc1cnc2[nH]ncc2c1
inhibition (ANKK1 (human)): 55% | inhibition (BLK (human)): 97.6% | inhibition (BMX (human)): 51% | inhibition (BRAF (human)): 78% | inhibition [1]: 93.6% | inhibition (CHUK (human)): 86% | inhibition (CPK1 (P.falciparum)): 79% | inhibition (CSF1R (human)): 97.8% | inhibition (CSK (human)): 97.8% | inhibition (DDR1 (human)): 99.8% | inhibition (DDR2 (human)): 64% | inhibition [2]: 54% | inhibition (EPHA3 (human)): 89% | inhibition (EPHA4 (human)): 52% | inhibition (EPHA8 (human)): 89% | inhibition (FGFR1 (human)): 84% | inhibition (FGR (human)): 81% | inhibition (FLT3 (human)): 97.6% | inhibition [3]: 82% | inhibition [4]: 58% | inhibition [5]: 95% | inhibition [6]: 97.1% | inhibition [7]: 77% | inhibition (HCK (human)): 95.8% | inhibition (IKBKB (human)): 90% | inhibition [8]: 67% | inhibition (KIT (human)): 97.2% | inhibition [9]: 97.8% | inhibition [10]: 91.9% | inhibition [11]: 98.6% | inhibition (LCK (human)): 96.8% | inhibition (LYN (human)): 83% | inhibition (MAP2K5 (human)): 94.8% | inhibition (MAP3K2 (human)): 63% | inhibition (MAP3K3 (human)): 90% | inhibition (MAP3K7 (human)): 96.2% | inhibition (MAP4K1 (human)): 59% | inhibition (MAP4K2 (human)): 86% | inhibition (MAPK14 (human)): 59% | inhibition (MLTK (human)): 96.2% | inhibition (MUSK (human)): 78% | inhibition (NTRK1 (human)): 100% | inhibition (NTRK2 (human)): 86% | inhibition (NTRK3 (human)): 82% | inhibition (PDGFRA (human)): 76% | inhibition (PDGFRB (human)): 90.5% | inhibition (RET (human)): 85% | inhibition [12]: 90.6% | inhibition [13]: 65% | inhibition (SGK3 (human)): 52% | inhibition (SRC (human)): 76% | inhibition (STK10 (human)): 99.8% | inhibition (TAOK3 (human)): 92.1% | inhibition (TEK (human)): 97.2% | inhibition (TIE1 (human)): 82% | inhibition (TNIK (human)): 81% | inhibition (TNK1 (human)): 83% | inhibition (ULK1 (human)): 51% | inhibition (YES1 (human)): 70%
